Measured values as given in patent US9963442B2, “Pyridones as herbicides” (E I DU PONT DE NEMOURS AND COMPANY, priority 2014, dated 2018).

Columns and labels:
Assay type in all cases: in vivo
[1] = tested on: pigweed (Amaranthus retroflexus); test: Test A postemergence application; settings: approx. 10 days
In short: (§1)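 Compounds in non-phytotoxic solvent with surfactant applied as directed soil spray preemergence or postemergence to plants 2–10 cm, one- to two-leaf stage, in loam/sand. Injury rated visually versus untreated controls after about 10 days in greenhouse, 0 (no effect) to 100 (complete control).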

kochia (Kochia scoparia) [2] = test: Test A postemergence application; settings: approx. 10 days
In short: as §1

corn (Zea mays) = test: Test A postemergence application; settings: approx. 10 days
In short: as §1

[3] = tested on: giant foxtail (Setaria faberii); test: Test A postemergence application; settings: approx. 10 days
In short: as §1

[4] = tested on: blackgrass (Alopecurus myosuroides); test: Test A postemergence application; settings: approx. 10 days
In short: as §1

[5] = tested on: barnyardgrass (Echinochloa crus-galli); test: Test A postemergence application; settings: approx. 10 days
In short: as §1

[6] = tested on: Italian ryegrass (Lolium multiflorum); test: Test A postemergence application; settings: approx. 10 days
In short: as §1

[7] = tested on: galium (catchweed bedstraw, Galium aparine); test: Test A postemergence application; settings: approx. 10 days
In short: as §1

[8] = tested on: johnsongrass (Sorghum halepense); test: Test C postemergence; settings: scale 0 to 100, 0 is no effect, 100 is complete control
From the text: (§2) Seeds of plant species selected from blackgrass (Alopecurus myosuroides), Italian ryegrass (Lolium multiflorum), winter wheat (Triticum aestivum), galium (catchweed bedstraw, Galium aparine), corn (Zea mays), large (Lg) crabgrass (Digitaria sanguinalis), giant foxtail (Setaria faberii), johnsongrass (Sorghum halepense), lambsquarters (Chenopodium album), morningglory (Ipomoea coccinea), yellow nutsedge (Cyperus esculentus), pigweed (Amaranthus retroflexus), ragweed (common ragweed, Ambrosia elatior), soybean (Glycine max), barnyardgrass (Echinochloa crus-galli), oilseed rape (Brassica napus), waterhemp (common waterhemp, Amaranthus rudis), and velvetleaf (Abutilon theophrasti) were planted into a blend of loam soil and sand and treated preemergence with test chemicals formulated in a non-phytotoxic solvent mixture which included a surfactant. At the same time, plants selected from these crop and weed species and also chickweed (common chickweed, Stellaria media), kochia (Kochia scoparia), and wild oat (Avena fatua), were planted in pots containing Sunshine Redi-Earth® planting medium comprising spaghnum peat moss, vermiculite, starter nutrients and dolomitic limestone and treated with postemergence applications of test chemicals formulated in the same manner. Plants ranged in height from 2 to 18 cm (1- to 4-leaf stage) for postemergence treatments. Treated plants and controls were maintained in a greenhouse for 13 to 15 days, after which time all species were compared to controls and visually evaluated. Plant response ratings, summarized in Table C, are based on a scale of 0 to 100 where 0 is no effect and 100 is complete control. A dash (-) response means no test result.

[9] = tested on: giant foxtail (Setaria faberii); test: Test C postemergence; settings: scale 0 to 100, 0 is no effect, 100 is complete control
From the text: as §2

[10] = tested on: winter wheat (Triticum aestivum); test: Test C postemergence; settings: scale 0 to 100, 0 is no effect, 100 is complete control
From the text: as §2

[11] = tested on: blackgrass (Alopecurus myosuroides); test: Test C postemergence; settings: scale 0 to 100, 0 is no effect, 100 is complete control
From the text: as §2

[12] = tested on: large (Lg) crabgrass (Digitaria sanguinalis); test: Test C postemergence; settings: scale 0 to 100, 0 is no effect, 100 is complete control
From the text: as §2

[13] = tested on: oilseed rape (Brassica napus); test: Test C postemergence; settings: scale 0 to 100, 0 is no effect, 100 is complete control
From the text: as §2

[14] = tested on: lambsquarters (Chenopodium album); test: Test C postemergence; settings: scale 0 to 100, 0 is no effect, 100 is complete control
From the text: as §2

[15] = tested on: ragweed (common ragweed, Ambrosia elatior); test: Test C postemergence; settings: scale 0 to 100, 0 is no effect, 100 is complete control
From the text: as §2

[16] = tested on: waterhemp (common waterhemp, Amaranthus rudis); test: Test C postemergence; settings: scale 0 to 100, 0 is no effect, 100 is complete control
From the text: as §2

[17] = tested on: pigweed (Amaranthus retroflexus); test: Test A preemergence, directed soil spray; settings: approx. 10 days
From the text: (§3) Seeds of plant species selected from barnyardgrass (Echinochloa crus-galli), kochia (Kochia scoparia), ragweed (common ragweed, Ambrosia elatior), Italian ryegrass (Lolium multiflorum), giant foxtail (Setaria faberii), and pigweed (Amaranthus retroflexus) were planted into a blend of loam soil and sand and treated preemergence with a directed soil spray using test chemicals formulated in a non-phytotoxic solvent mixture which included a surfactant. At the same time, plants selected from these weed species and also wheat (Triticum aestivum), corn (Zea mays), blackgrass (Alopecurus myosuroides), and galium (catchweed bedstraw, Galium aparine) were planted in pots containing the same blend of loam soil and sand and treated with postemergence applications of test chemicals formulated in the same manner. Plants ranged in height from 2 to 10 cm and were in the one- to two-leaf stage for the postemergence treatment. Treated plants and untreated controls were maintained in a greenhouse for approximately 10 days, after which time all treated plants were compared to untreated controls and visually evaluated for injury. Plant response ratings, summarized in Table A, are based on a 0 to 100 scale where 0 is no effect and 100 is complete control. A dash (-) response means no test result.

kochia (Kochia scoparia) [18] = test: Test A preemergence, directed soil spray; settings: approx. 10 days
From the text: as §3

[19] = tested on: giant foxtail (Setaria faberii); test: Test A preemergence, directed soil spray; settings: approx. 10 days
From the text: as §3

[20] = tested on: ragweed (common ragweed, Ambrosia elatior); test: Test A preemergence, directed soil spray; settings: approx. 10 days
From the text: as §3

[21] = tested on: barnyardgrass (Echinochloa crus-galli); test: Test A preemergence, directed soil spray; settings: approx. 10 days
From the text: as §3

[22] = tested on: Italian ryegrass (Lolium multiflorum); test: Test A preemergence, directed soil spray; settings: approx. 10 days
From the text: as §3

O=c1cccc(Oc2ncc(Cl)cn2)n1-c1ccc(Cl)cc1 [Compound 1, 1-(4-chlorophenyl)-6-[(5-chloro-2-pyrimidinyl)oxy]-2(1H)-pyridinone]
Plant response rating (0 to 100 scale, 0 no effect, 100 complete control), Pigweed ([1]; 125 g ai/ha): 100 | Plant response rating (0 to 100 scale, 0 no effect, 100 complete control), Pigweed ([1]; 500 g ai/ha): 100 | Plant response rating (0 to 100 scale, 0 no effect, 100 complete control), Kochia (kochia (Kochia scoparia) [2]; 125 g ai/ha): 90 | Plant response rating (0 to 100 scale, 0 no effect, 100 complete control), Kochia (kochia (Kochia scoparia) [2]; 500 g ai/ha): 100 | Plant response rating (0 to 100 scale, 0 no effect, 100 complete control), Corn (corn (Zea mays); 125 g ai/ha): 30 | Plant response rating (0 to 100 scale, 0 no effect, 100 complete control), Corn (corn (Zea mays); 500 g ai/ha): 30 | Plant response rating (0 to 100 scale, 0 no effect, 100 complete control), Foxtail, Giant ([3]; 125 g ai/ha): 70 | Plant response rating (0 to 100 scale, 0 no effect, 100 complete control), Foxtail, Giant ([3]; 500 g ai/ha): 100 | Plant response rating (0 to 100 scale, 0 no effect, 100 complete control), Blackgrass ([4]; 125 g ai/ha): 20 | Plant response rating (0 to 100 scale, 0 no effect, 100 complete control), Blackgrass ([4]; 500 g ai/ha): 90 | Plant response rating (0 to 100 scale, 0 no effect, 100 complete control), Barnyardgrass ([5]; 125 g ai/ha): 20 | Plant response rating (0 to 100 scale, 0 no effect, 100 complete control), Barnyardgrass ([5]; 500 g ai/ha): 100 | Plant response rating (0 to 100 scale, 0 no effect, 100 complete control), Ryegrass, Italian ([6]; 125 g ai/ha): 0 | Plant response rating (0 to 100 scale, 0 no effect, 100 complete control), Ryegrass, Italian ([6]; 500 g ai/ha): 70 | Plant response rating (0 to 100 scale, 0 no effect, 100 complete control), Galium ([7]; 125 g ai/ha): 50 | Plant response rating (0 to 100 scale, 0 no effect, 100 complete control), Galium ([7]; 500 g ai/ha): 100 | Plant response rating, Johnsongrass ([8]; 16 g ai/ha): 0 | Plant response rating, Johnsongrass ([8]; 31 g ai/ha): 5 | Plant response rating, Johnsongrass ([8]; 62 g ai/ha): 5 | Plant response rating, Johnsongrass ([8]; 125 g ai/ha): 5 | Plant response rating, Foxtail, Giant ([9]; 16 g ai/ha): 5 | Plant response rating, Foxtail, Giant ([9]; 31 g ai/ha): 10 | Plant response rating, Foxtail, Giant ([9]; 62 g ai/ha): 10 | Plant response rating, Foxtail, Giant ([9]; 125 g ai/ha): 10 | Plant response rating, Wheat ([10]; 16 g ai/ha): 0 | Plant response rating, Wheat ([10]; 31 g ai/ha): 5 | Plant response rating, Wheat ([10]; 62 g ai/ha): 5 | Plant response rating, Wheat ([10]; 125 g ai/ha): 10 | Plant response rating, Blackgrass ([11]; 16 g ai/ha): 5 | Plant response rating, Blackgrass ([11]; 31 g ai/ha): 5 | Plant response rating, Blackgrass ([11]; 62 g ai/ha): 5 | Plant response rating, Blackgrass ([11]; 125 g ai/ha): 5 | Plant response rating, Crabgrass, Large ([12]; 16 g ai/ha): 10 | Plant response rating, Crabgrass, Large ([12]; 31 g ai/ha): 15 | Plant response rating, Crabgrass, Large ([12]; 62 g ai/ha): 15 | Plant response rating, Crabgrass, Large ([12]; 125 g ai/ha): 20 | Plant response rating, Oilseed Rape ([13]; 16 g ai/ha): 10 | Plant response rating, Oilseed Rape ([13]; 31 g ai/ha): 30 | Plant response rating, Oilseed Rape ([13]; 62 g ai/ha): 70 | Plant response rating, Oilseed Rape ([13]; 125 g ai/ha): 80 | Plant response rating, Lambsquarters ([14]; 16 g ai/ha): 15 | Plant response rating, Lambsquarters ([14]; 31 g ai/ha): 15 | Plant response rating, Lambsquarters ([14]; 62 g ai/ha): 45 | Plant response rating, Lambsquarters ([14]; 125 g ai/ha): 55 | Plant response rating, Ragweed ([15]; 16 g ai/ha): 10 | Plant response rating, Ragweed ([15]; 31 g ai/ha): 70 | Plant response rating, Ragweed ([15]; 62 g ai/ha): 35 | Plant response rating, Ragweed ([15]; 125 g ai/ha): 40 | Plant response rating, Waterhemp ([16]; 16 g ai/ha): 25 | Plant response rating, Waterhemp ([16]; 31 g ai/ha): 80 | Plant response rating, Waterhemp ([16]; 62 g ai/ha): 70 | Plant response rating, Waterhemp ([16]; 125 g ai/ha): 90 | Plant response rating (0 to 100 scale, 0 no effect, 100 complete control), Pigweed ([17]; 125 g ai/ha): 40 | Plant response rating (0 to 100 scale, 0 no effect, 100 complete control), Pigweed ([17]; 500 g ai/ha): 100 | Plant response rating (0 to 100 scale, 0 no effect, 100 complete control), Kochia (kochia (Kochia scoparia) [18]; 125 g ai/ha): 40 | Plant response rating (0 to 100 scale, 0 no effect, 100 complete control), Kochia (kochia (Kochia scoparia) [18]; 500 g ai/ha): 100 | Plant response rating (0 to 100 scale, 0 no effect, 100 complete control), Foxtail, Giant ([19]; 125 g ai/ha): 90 | Plant response rating (0 to 100 scale, 0 no effect, 100 complete control), Foxtail, Giant ([19]; 500 g ai/ha): 100 | Plant response rating (0 to 100 scale, 0 no effect, 100 complete control), Ragweed ([20]; 125 g ai/ha): 0 | Plant response rating (0 to 100 scale, 0 no effect, 100 complete control), Ragweed ([20]; 500 g ai/ha): 20 | Plant response rating (0 to 100 scale, 0 no effect, 100 complete control), Barnyardgrass ([21]; 125 g ai/ha): 30 | Plant response rating (0 to 100 scale, 0 no effect, 100 complete control), Barnyardgrass ([21]; 500 g ai/ha): 100 | Plant response rating (0 to 100 scale, 0 no effect, 100 complete control), Ryegrass, Italian ([22]; 125 g ai/ha): 0 | Plant response rating (0 to 100 scale, 0 no effect, 100 complete control), Ryegrass, Italian ([22]; 500 g ai/ha): 20
